Columns and labels:
HeLa cells = test: BrdU incorporation assay; type: cell-based; conditions: 20 µM, 48 h
Experimental: (§1) Cell proliferation rates were measured by using the CellTitre 96 AqueousOne kit (Promega) and bromodeoxyuridine (BrdU) assay kit (Millipore) according to the manufacturer’s protocol as we have described ([51]). Cytotoxicity was evaluated by using the commercial kit (CAT# 8078, ThermoFisher). Culture media was collected and used to measure lactate dehydrogenase (LDH) levels by a colorimetric method following the manufacture’s protocol (ThermoFisher). Cell cycling was assessed by using BrdU incorporation into S-phase DNA by using the APC BrdU flow kit (BD Pharmingen; Franklin Lakes, New Jersey) according to the manufacturer’s protocol. 1 mM of BrdU was added to cells and incubated for 6 h. Cells were incubated with anti-BrdU antibody and stained with 7-AAD before processing the cells for flow cytometry ([52]). Immunoblotting assays followed the standard protocol as we have reported ([51]–[53]).

[1] = tested on: K562, U937, NCI-H82, and NCCIT cancer cells; test: Co-treatment with paclitaxel or camptothecin, MTS assay; type: cell-based; conditions: 5-20 µM T60 co-treatment
Experimental: as §1

TOP2B [2] = target: T1, TOP2B (Homo sapiens, UniProt Q02880); test: Chromatin fractionation assay; type: cell-based; design: endogenous in cells; host or cells: K562 (the thermal shift text says HeLa, the legend says K562); K562 for chromatin fractionation; conditions: K562 cells, 0, 1, 20 µM, 24 hours
Experimental: (§2) In the thermal shift assays, cells were treated with vehicle or T60 for 1 h and split into equal aliquots to be heated at 37 to 46°. Protein lyses were collected to perform immunoblotting assays with TOP2 antibodies (Abcam 12318, Santa Cruz sc-13059 & sc-365071). Our chromatin fractionation assays followed the protocol as previously described (Méndez & Stillman, 2000; Wysocka, Reilly, & Herr, 2001). Briefly, K562 cells (4 × 10 ([7]) cells/ml) were collected and re-suspended in buffer A (10 mM HEPES [pH 7.9], 10 mM KCl, 1.5 mM MgCl2, 0.34 M sucrose, 10% glycerol, 1 mM DTT, and protease inhibitor cocktail), before Triton X-100 was added to final concentration at 0.1%. Cells were then incubated on ice for 10 min, and nuclei were collected by centrifugation at speed of 1,300g for 4 min at 4°C. The nuclei were then washed once with buffer A and then incubated with buffer B (3 mM EDTA, 0.2 mM EGTA, 1 mM DTT, and protease inhibitor cocktail [ROCHE]) for 30 min in ice. Insoluble chromatin was collected by centrifugation at 1,700g for 4 min at 4°C, and washed once with buffer B. Chromatin associated proteins were extracted by incubation with Buffer C [500 mM Tris-HCl (pH 6.8), 500 mM NaCl, and protease inhibitor cocktail (ROCHE)] followed by brief sonication. The supernatant was collected to perform immunoblotting assays with TOP2 antibodies as we have described ([51]–[53]).

TOP2A [3] = target: T2, TOP2A (Homo sapiens, UniProt P11388); test: Chromatin fractionation assay; type: cell-based; design: endogenous in cells; host or cells: K562 (the thermal shift text says HeLa, the legend says K562); K562 for chromatin fractionation; conditions: K562 cells, 0, 1, 20 µM, 24 hours
Experimental: as §2

AR-v7 = test: Immunoblotting of AR protein levels; type: cell-based; conditions: LNCaP and LNCaP95 cells, 0-20 µM
Experimental: as §1

AR full-length (AR-fl) = test: Immunoblotting of AR protein levels; type: cell-based; conditions: LNCaP and LNCaP95 cells, 0-20 µM
Experimental: as §1

TOP2B [4] = target: T1, TOP2B; test: Cellular thermal shift assay; type: cell-based; design: endogenous in cells; host or cells: K562 (the thermal shift text says HeLa, the legend says K562); K562 for chromatin fractionation; conditions: 20 µM; vehicle 40C; Hela cells
Experimental: as §2

TOP2A [5] = target: T2, TOP2A; test: Cellular thermal shift assay; type: cell-based; design: endogenous in cells; host or cells: K562 (the thermal shift text says HeLa, the legend says K562); K562 for chromatin fractionation; conditions: 20 µM; vehicle 40C; Hela cells
Experimental: as §2

TOP2A (431–1193) = target: T3, TOP2A (431–1193) (Homo sapiens, UniProt P11388); test: Electrophoresis mobility shift assay (EMSA); type: binding; conditions: 200 µM; 30 µM protein, 300 nM 5ZRF oligo
T3 construct: was incorporated with TOP2A (431–1193); made in house; host or cells: Escherichia coli BL21 co-expressing biotin ligase
Experimental: EMSA followed the standard protocols as we and others described with minor modifications ([54]–[56]). The double-strand DNA oligo, 5ZRF (AGCCGAGCTGCAGCTCGGCT labeled by IRDye700) was purchased from IDT (Coralville, USA). Human TOP2 (431–1193), TOP2A (TopoGEN) or TOP2B (Inspiralis) proteins were incubated with 300 nM of 5ZRF oligo in a standard 20 µl EMSA reaction in a reaction buffer containing 20 mM HEPES-NaOH, pH 7.4, 2 mM DTT, 3 mM MgCl2, 0.05% NP-40, protease inhibitors, and 0.1 µg poly[dI:dC]. After incubation for 30 min at 37C, reactions were loaded onto 4% non-denatured polyacrylamide gel in 0.5× TBE buffer. The DNA oligo bands were visualized by using the Li-Cor Odyssey 9120 Infrared Imaging System.

NCCIT testicular cells = test: Cell viability, MTS assay; type: cell-based; conditions: T60 alone, up to 20 µM
Experimental: as §1

MR49F = test: Cell viability, MTS assay; type: cell-based; conditions: 0-20 µM
Experimental: as §1

BPH1 = test: Cell viability, MTS assay; type: cell-based; conditions: 0-20 µM; compared to AR-positive PCa cell lines
Experimental: as §1

PC3 = test: Cell viability, MTS assay; type: cell-based; conditions: 0-20 µM; compared to AR-positive PCa cell lines
Experimental: as §1

DU145 = test: Cell viability, MTS assay; type: cell-based; conditions: 0-20 µM; compared to AR-positive PCa cell lines
Experimental: as §1

U937 leukemia cells = test: Cell viability, MTS assay; type: cell-based; conditions: T60 alone, up to 20 µM
Experimental: as §1

LNCaP = test: Cell viability, MTS assay; type: cell-based; conditions: 0-20 µM
Experimental: as §1

LNCaP95 = test: Cell viability, MTS assay; type: cell-based; conditions: 0-20 µM
Experimental: as §1

[6] = tested on: AR target genes such as PSA and FKBP5; test: Real-time PCR of AR target genes; type: cell-based; conditions: LNCaP and LNCaP95 cells, 0-20 µM, −/+10nM DHT

T1 sequence (Q02880 2-1626 limits assumed): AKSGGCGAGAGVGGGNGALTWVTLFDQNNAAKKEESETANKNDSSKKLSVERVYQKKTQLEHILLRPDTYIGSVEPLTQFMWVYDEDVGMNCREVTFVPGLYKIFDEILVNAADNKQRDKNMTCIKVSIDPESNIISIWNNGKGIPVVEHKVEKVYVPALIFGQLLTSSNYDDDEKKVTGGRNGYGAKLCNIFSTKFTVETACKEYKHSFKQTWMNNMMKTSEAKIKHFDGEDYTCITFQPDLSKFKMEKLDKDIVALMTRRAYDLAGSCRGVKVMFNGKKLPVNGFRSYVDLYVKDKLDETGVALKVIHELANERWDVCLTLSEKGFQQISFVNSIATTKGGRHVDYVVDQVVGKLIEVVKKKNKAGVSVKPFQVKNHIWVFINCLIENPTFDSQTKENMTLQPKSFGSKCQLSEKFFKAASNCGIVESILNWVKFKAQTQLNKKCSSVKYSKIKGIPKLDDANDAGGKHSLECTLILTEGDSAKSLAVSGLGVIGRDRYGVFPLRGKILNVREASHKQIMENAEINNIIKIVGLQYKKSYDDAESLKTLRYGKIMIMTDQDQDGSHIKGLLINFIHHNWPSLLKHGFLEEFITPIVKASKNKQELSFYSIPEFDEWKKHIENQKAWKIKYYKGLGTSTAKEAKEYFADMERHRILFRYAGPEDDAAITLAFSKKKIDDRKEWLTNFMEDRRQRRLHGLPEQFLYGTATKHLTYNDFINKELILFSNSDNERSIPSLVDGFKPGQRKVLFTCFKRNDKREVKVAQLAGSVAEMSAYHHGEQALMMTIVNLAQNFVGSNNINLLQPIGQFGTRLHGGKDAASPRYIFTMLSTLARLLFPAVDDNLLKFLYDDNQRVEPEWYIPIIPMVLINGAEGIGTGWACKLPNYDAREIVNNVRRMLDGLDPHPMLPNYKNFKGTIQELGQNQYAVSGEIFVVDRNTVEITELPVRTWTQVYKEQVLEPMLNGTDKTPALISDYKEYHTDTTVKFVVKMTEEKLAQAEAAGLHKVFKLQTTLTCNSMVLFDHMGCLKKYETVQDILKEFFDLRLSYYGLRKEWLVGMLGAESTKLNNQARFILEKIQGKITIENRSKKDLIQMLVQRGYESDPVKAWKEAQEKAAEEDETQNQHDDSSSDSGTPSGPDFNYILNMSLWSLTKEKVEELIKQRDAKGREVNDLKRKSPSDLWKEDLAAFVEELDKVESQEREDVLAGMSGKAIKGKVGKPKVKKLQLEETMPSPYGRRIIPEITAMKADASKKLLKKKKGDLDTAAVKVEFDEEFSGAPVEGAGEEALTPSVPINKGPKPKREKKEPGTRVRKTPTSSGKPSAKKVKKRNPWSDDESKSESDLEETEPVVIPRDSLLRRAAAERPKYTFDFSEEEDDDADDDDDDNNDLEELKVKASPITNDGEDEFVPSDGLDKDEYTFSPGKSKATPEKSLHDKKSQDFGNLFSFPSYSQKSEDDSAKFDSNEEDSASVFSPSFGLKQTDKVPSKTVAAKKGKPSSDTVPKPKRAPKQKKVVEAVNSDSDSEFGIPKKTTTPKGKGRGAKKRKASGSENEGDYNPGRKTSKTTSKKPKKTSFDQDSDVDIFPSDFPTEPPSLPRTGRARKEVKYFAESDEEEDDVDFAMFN
T2 sequence (P11388 whole entry): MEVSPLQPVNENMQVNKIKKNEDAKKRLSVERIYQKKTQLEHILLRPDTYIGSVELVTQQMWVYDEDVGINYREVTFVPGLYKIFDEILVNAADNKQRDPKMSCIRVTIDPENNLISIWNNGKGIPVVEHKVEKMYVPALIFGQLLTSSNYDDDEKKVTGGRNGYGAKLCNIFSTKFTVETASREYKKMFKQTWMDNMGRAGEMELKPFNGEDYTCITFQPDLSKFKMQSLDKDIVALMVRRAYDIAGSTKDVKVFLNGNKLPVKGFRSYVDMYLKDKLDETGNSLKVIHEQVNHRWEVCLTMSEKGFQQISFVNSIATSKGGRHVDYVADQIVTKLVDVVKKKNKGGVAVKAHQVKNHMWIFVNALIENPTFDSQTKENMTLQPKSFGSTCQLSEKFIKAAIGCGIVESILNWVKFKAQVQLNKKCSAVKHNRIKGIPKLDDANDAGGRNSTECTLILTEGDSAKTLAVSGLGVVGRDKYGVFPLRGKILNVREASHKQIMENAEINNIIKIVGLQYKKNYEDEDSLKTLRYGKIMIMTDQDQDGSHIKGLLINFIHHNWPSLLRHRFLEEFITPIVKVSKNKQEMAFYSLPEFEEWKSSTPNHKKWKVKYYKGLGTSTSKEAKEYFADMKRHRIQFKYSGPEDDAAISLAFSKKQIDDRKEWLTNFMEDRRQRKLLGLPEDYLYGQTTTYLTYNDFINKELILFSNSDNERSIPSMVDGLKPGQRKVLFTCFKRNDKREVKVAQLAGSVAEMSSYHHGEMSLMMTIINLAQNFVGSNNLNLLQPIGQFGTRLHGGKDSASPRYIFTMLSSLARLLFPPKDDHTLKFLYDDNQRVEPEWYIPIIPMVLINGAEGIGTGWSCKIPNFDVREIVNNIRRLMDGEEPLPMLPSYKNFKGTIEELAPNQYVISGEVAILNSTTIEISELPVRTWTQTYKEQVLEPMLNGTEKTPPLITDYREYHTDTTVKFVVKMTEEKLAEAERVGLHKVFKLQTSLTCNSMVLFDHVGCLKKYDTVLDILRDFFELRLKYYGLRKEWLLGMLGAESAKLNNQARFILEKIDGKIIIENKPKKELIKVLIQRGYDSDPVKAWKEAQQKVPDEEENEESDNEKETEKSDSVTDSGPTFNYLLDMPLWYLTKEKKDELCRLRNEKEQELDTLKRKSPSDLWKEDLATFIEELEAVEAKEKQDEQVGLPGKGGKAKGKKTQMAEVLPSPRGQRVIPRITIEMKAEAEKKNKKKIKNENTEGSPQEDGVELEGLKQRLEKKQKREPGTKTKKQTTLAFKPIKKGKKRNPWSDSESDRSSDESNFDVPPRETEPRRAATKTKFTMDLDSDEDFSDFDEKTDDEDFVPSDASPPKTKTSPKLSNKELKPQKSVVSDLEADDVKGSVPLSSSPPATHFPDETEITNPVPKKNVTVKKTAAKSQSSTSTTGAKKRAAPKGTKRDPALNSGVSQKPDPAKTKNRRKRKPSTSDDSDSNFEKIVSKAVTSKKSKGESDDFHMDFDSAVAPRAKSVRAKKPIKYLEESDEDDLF
T3 sequence (P11388 431-1193): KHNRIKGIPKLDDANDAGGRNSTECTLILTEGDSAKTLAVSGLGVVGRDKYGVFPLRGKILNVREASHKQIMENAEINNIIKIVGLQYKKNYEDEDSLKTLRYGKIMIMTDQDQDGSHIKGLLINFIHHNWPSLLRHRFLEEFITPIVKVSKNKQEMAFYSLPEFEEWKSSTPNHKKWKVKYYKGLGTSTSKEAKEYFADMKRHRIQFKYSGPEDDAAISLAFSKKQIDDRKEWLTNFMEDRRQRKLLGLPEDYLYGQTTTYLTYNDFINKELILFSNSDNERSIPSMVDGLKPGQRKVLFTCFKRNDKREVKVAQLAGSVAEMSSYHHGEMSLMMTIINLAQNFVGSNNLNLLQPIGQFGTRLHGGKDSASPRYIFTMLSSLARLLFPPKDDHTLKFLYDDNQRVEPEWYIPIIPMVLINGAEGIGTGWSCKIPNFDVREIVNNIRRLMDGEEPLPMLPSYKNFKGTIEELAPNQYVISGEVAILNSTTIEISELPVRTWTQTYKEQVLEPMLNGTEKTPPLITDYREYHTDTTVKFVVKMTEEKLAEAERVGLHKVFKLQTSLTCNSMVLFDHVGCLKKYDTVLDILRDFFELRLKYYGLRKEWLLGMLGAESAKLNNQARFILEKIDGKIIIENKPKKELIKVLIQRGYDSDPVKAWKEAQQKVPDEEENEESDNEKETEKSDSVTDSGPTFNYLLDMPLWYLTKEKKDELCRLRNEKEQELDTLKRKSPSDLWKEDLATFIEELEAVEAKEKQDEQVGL

O=C(Nc1ccc(Nc2ccccc2)cc1)c1ccc[nH]c1=S [T60]
DNA replication (BrdU incorporation) (HeLa cells): reduced DNA replication | Effect on effectiveness of paclitaxel and camptothecin in suppressing cancer cell growth [1]: enhanced the effectiveness of these drugs | TOP2B association with chromatin (TOP2B [2]): reduced | TOP2A association with chromatin (TOP2A [3]): reduced | Protein levels of AR-v7 (AR-v7): inhibited the protein levels | Protein levels of AR full-length (AR full-length (AR-fl)): inhibited the protein levels | Temperature up to which TOP2B protein is stabilized (TOP2B [4]): up to 43 C | Temperature up to which TOP2A protein is stabilized (TOP2A [5]): up to 43 C | Abolishment of TOP2A (431–1193)-induced upshifted DNA band (TOP2A (431–1193)): abolished | Inhibition of cell growth, NCCIT (NCCIT testicular cells): 50% | Cell viability, MR49F (MR49F): strongly suppressed | Cell viability, BPH1 (BPH1): to a much less extent | Cell viability, PC3 (PC3): to a much less extent | Cell viability, DU145 (DU145): to a much less extent | Inhibition of cell growth, U937 (U937 leukemia cells): completely inhibited | Cell viability, LNCaP (LNCaP): strongly suppressed | Cell viability, LNCaP95 (LNCaP95): strongly suppressed | mRNA expression of AR target genes (PSA, FKBP5) [6]: inhibited mRNA expression of AR target genes
